Laboratory results published in US20080312435A1, “Imine Compound” (TAISHO PHARMACEUTICAL CO., LTD., priority 2004, published 2008).

Experiments:
human CB2 receptor = target: T1, human CB2 receptor (Homo sapiens, UniProt P34972); assay: Human CB2 receptor binding inhibition test ([3H]CP-55,940, CHO membrane fractions); conditions: [3H]CP-55,940, membrane fractions of CHO cells stably expressing human CB2 receptor, 25° C., 2 hours; read-out: CB2 IC50 (Inhibition of binding to human CB2 receptor)
T1 construct: expressed in transfected cells
Description: Human CB2 Receptor Binding Inhibition Test
First, cDNA sequence (Munro et al., Nature, 1993, 365, 61-65) encoding a human CB2 receptor was inserted in the forward direction in an animal-cell expression vector, pTARGET Vector (manufactured by Promega) at a region downstream of a CMV promoter. Host cells CHO-DHFR(−) were transfected with the obtained expression vector with the aid of Lipofectamine (manufactured by Invitrogen) to obtain cells capable of stably expressing the CB2 receptor.
After the filtrate was washed with an assay buffer containing 0.1% bovine serum albumin, the radioactivity on the glass filter was measured by a liquid scintillation counter. Nonspecific binding was measured in the presence of 2.0 μM CP-55,940 (manufactured by Tocris). 50% inhibitory concentration (IC50 value) of the test compound for the specific binding was obtained.

T1 sequence (P34972 whole entry): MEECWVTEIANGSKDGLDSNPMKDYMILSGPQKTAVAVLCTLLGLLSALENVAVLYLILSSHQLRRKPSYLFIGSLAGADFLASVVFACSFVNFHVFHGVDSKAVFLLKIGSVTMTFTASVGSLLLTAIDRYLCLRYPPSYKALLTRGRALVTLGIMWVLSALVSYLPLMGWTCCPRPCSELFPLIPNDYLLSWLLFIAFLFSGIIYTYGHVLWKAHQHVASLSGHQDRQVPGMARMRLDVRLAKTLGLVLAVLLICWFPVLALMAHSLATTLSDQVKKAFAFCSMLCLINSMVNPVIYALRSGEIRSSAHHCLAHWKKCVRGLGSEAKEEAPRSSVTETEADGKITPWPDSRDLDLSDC

Structure (SMILES) | IC50 (human CB2 receptor) | melting point
Cc1c(C(C)(C)C)s/c(=N\C(=O)C2C[C@H]2c2ccccc2)n1CC1CC1 (mixture of isomers) [compound 337] | 2.8 nM | 110 to 112 °C
Cc1s/c(=N\C(=O)CC(C)CC(C)(C)C)n(CC2CC2)c1C (racemic) [compound 99] | 6.5 nM | 42 to 43 °C
CCOCCn1c(C)c(C(C)(C)C)s/c1=N\C(=O)c1cccc(C(F)(F)F)c1 [Compound No. 352, 5-t-butyl-3-(2-ethoxyethyl)-4-methyl-2-(3-trifluoromethylbenzoyl)imino-2,3-dihydrothiazole] | 2.3 nM | 91 to 92 °C
O=C(/N=c1\ccccn1CC1CCC1)c1cccc(C(F)(F)F)c1F [compound 12] | 13.3 nM | 93 to 94 °C
Cc1ccn(CC2CC2)/c(=N/C(=O)c2cccc(C(F)(F)F)c2F)c1 [compound 23] | 8.9 nM | 81 to 83 °C
Cc1cc/c(=N\C(=O)c2cccc(C(F)(F)F)c2F)n(CC2CC2)c1 [compound 24] | 7.5 nM | 118 to 120 °C
Cc1ccc/c(=N\C(=O)c2cccc(C(F)(F)F)c2F)n1CC1CC1 [compound 25] | 17.4 nM | 96 to 98 °C
O=C(/N=c1\cc(C(F)(F)F)ccn1CC1CC1)c1cccc(C(F)(F)F)c1F [compound 29] | 8.6 nM | 85 to 86 °C
O=C(/N=c1\cc(Cl)ccn1CC1CC1)c1cccc(C(F)(F)F)c1F [compound 33] | 8.2 nM | 91 to 93 °C
O=C(/N=c1\ccc(Cl)cn1CC1CC1)c1cccc(C(F)(F)F)c1F [compound 34] | 6.6 nM | 117 to 119 °C
O=C(/N=c1\cccc(Cl)n1CC1CC1)c1cccc(C(F)(F)F)c1F [compound 35] | 3.4 nM | 81 to 83 °C
O=C(/N=c1\ccc(F)cn1CC1CC1)c1cccc(C(F)(F)F)c1F [compound 37] | 11.3 nM | 89 to 91 °C
Cc1c(Br)cc/c(=N\C(=O)c2cccc(C(F)(F)F)c2F)n1CC1CC1 [compound 41] | 1.4 nM | 135 to 137 °C
Cc1c/c(=N\C(=O)c2cccc(C(F)(F)F)c2F)n(CC2CC2)c(C)c1Br [compound 46] | 1.2 nM | 121 to 122 °C
CC(C)(C)c1c/c(=N\C(=O)c2cc(C(F)(F)F)ccc2F)n(CC2CC2)s1 [compound 58] | 1.8 nM | 63 to 65 °C
Cc1cs/c(=N\C(=O)c2cccc(C(F)(F)F)c2F)n1CC1CC1 [compound 63] | 4.9 nM | 109 to 111 °C
Cc1cn(CC2CC2)/c(=N/C(=O)c2cccc(C(F)(F)F)c2F)s1 [compound 67] | 3 nM | 129 to 130 °C
CCn1c(C)c(C)s/c1=N\C(=O)c1cccc(C(F)(F)F)c1F [compound 70] | 14.9 nM | 198 to 200 °C
CCc1ccccc1C(=O)/N=c1\sc(C)c(C)n1CC1CC1 [compound 71] | 5.9 nM | 150 to 152 °C
Cc1s/c(=N\C(=O)c2ccccc2C(F)(F)F)n(CC2CC2)c1C [compound 74] | 4.6 nM | 125 to 127 °C
Cc1s/c(=N\C(=O)c2ccccc2Br)n(CC2CC2)c1C [compound 76] | 14.4 nM | 114 to 116 °C

Structure (SMILES) | IC50 (human CB2 receptor) | melting point
Cc1s/c(=N\C(=O)c2cccc(Br)c2)n(CC2CC2)c1C [compound 77] | 19.3 nM | 159 to 160 °C
Cc1s/c(=N\C(=O)c2ccccc2I)n(CC2CC2)c1C [compound 78] | 9.8 nM | 130 to 132 °C
Cc1s/c(=N\C(=O)c2cccc(Cl)c2F)n(CC2CC2)c1C [compound 79] | 8.4 nM | 109 to 111 °C
Cc1s/c(=N\C(=O)c2cc(F)ccc2Cl)n(CC2CC2)c1C [compound 80] | 17.9 nM | 139 to 140 °C
Cc1s/c(=N\C(=O)c2cc(F)c(F)cc2Cl)n(CC2CC2)c1C [compound 85] | 18.9 nM | 161 to 163 °C
Cc1s/c(=N\C(=O)c2cc(F)c(Cl)cc2Cl)n(CC2CC2)c1C [compound 86] | 6.5 nM | 59 to 60 °C
COc1ccc(OC)c(C(=O)/N=c2\sc(C)c(C)n2CC2CC2)c1 [compound 88] | 17.8 nM | 124 to 126 °C
Cc1ccc(F)cc1C(=O)/N=c1\sc(C)c(C)n1CC1CC1 [compound 89] | 9.8 nM | 82 to 84 °C
Cc1cc(Cl)ccc1C(=O)/N=c1\sc(C)c(C)n1CC1CC1 [compound 90] | 6.5 nM | 124 to 125 °C
Cc1ccc(C(=O)/N=c2\sc(C)c(C)n2CC2CC2)c(Br)c1 [compound 91] | 7.9 nM | 90 to 92 °C
Cc1s/c(=N\C(=O)c2cc(C(F)(F)F)ccc2F)n(CC2CC2)c1C [compound 92] | 3.9 nM | 122 to 123 °C
Cc1s/c(=N\C(=O)c2cc(F)ccc2C(F)(F)F)n(CC2CC2)c1C [compound 93] | 17.6 nM | 131 to 133 °C
Cc1s/c(=N\C(=O)c2c(F)cccc2C(F)(F)F)n(CC2CC2)c1C [compound 94] | 2.9 nM | 111 to 113 °C
COc1ccc(F)cc1C(=O)/N=c1\sc(C)c(C)n1CC1CC1 [compound 96] | 7.7 nM | 107 to 109 °C
COc1ccc(Cl)cc1C(=O)/N=c1\sc(C)c(C)n1CC1CC1 [compound 97] | 3.3 nM | 121 to 123 °C
Cc1s/c(=N\C(=O)CC2CCCC2)n(CC2CC2)c1C [compound 100] | 7 nM | 108 to 109 °C
COCCCn1c(C)c(C)s/c1=N\C(=O)c1cccc(C(F)(F)F)c1F [compound 105] | 1.7 nM | 104 to 106 °C
CCc1s/c(=N\C(=O)c2cccc(C(F)(F)F)c2F)n(CC2CC2)c1C [compound 109] | 1.3 nM | 164 to 166 °C
Cc1c(C(C)C)s/c(=N\C(=O)c2cccc(C(F)(F)F)c2F)n1CC1CC1 [compound 113] | 1.1 nM | 64 to 66 °C
COCCn1c(C)c(C(C)C)s/c1=N\C(=O)c1cccc(C(F)(F)F)c1F [compound 114] | 1.6 nM | 132 to 134 °C
Cc1c(C(C)(C)C)s/c(=N\C(=O)c2ccccc2C(F)(F)F)n1C [compound 117] | 5.6 nM | 74 to 76 °C

Structure (SMILES) | IC50 (human CB2 receptor) | melting point
Cc1c(C(C)(C)C)s/c(=N\C(=O)c2ccccc2Cl)n1C [compound 119] | 18.5 nM | 119 to 121 °C
Cc1c(C(C)(C)C)s/c(=N\C(=O)c2ccccc2Br)n1C [compound 120] | 7.4 nM | 182 to 184 °C
Cc1c(C(C)(C)C)s/c(=N\C(=O)c2ccccc2I)n1C [compound 122] | 8.9 nM | 83 to 85 °C
Cc1c(C(C)(C)C)s/c(=N\C(=O)c2cccc(Cl)c2F)n1C [compound 129] | 7.1 nM | 203 to 205 °C
Cc1c(C(C)(C)C)s/c(=N\C(=O)c2cc(F)ccc2Cl)n1C [compound 130] | 8.5 nM | 125 to 126 °C
Cc1c(C(C)(C)C)s/c(=N\C(=O)c2cc(F)ccc2Br)n1C [compound 131] | 5.6 nM | 161 to 162 °C
Cc1c(C(C)(C)C)s/c(=N\C(=O)c2cc(Br)ccc2F)n1C [compound 132] | 15.7 nM | 144 to 145 °C
Cc1c(C(C)(C)C)s/c(=N\C(=O)c2cc(Cl)ccc2Cl)n1C [compound 133] | 7.3 nM | 171 to 173 °C
Cc1c(C(C)(C)C)s/c(=N\C(=O)c2c(F)ccc(F)c2F)n1C [compound 134] | 6.8 nM | 143 to 145 °C
Cc1c(C(C)(C)C)s/c(=N\C(=O)c2cc(F)c(F)cc2Cl)n1C [compound 135] | 11.9 nM | 145 to 146 °C
Cc1c(C(C)(C)C)s/c(=N\C(=O)c2cc(F)c(Cl)cc2Cl)n1C [compound 136] | 11.6 nM | 205 to 207 °C
Cc1ccc(F)cc1C(=O)/N=c1\sc(C(C)(C)C)c(C)n1C [compound 138] | 12 nM | 145 to 146 °C
Cc1c(Cl)cccc1C(=O)/N=c1\sc(C(C)(C)C)c(C)n1C [compound 139] | 7.4 nM | 161 to 162 °C
Cc1c(Br)cccc1C(=O)/N=c1\sc(C(C)(C)C)c(C)n1C [compound 140] | 6.1 nM | 143 to 144 °C
Cc1c(C(C)(C)C)s/c(=N\C(=O)c2cccc(C(F)(F)F)c2F)n1C [compound 141] | 13.9 nM | 176 to 178 °C
CCOCCn1/c(=N/C(=O)c2cccc(C(F)(F)F)c2F)cc(C(C)(C)C)n1C [compound 488] | 4 nM | –
CC(C)OCCn1/c(=N/C(=O)c2cccc(C(F)(F)F)c2F)cc(C(C)(C)C)n1C [compound 493] | 1.9 nM | –
CCn1c(C(C)(C)C)c/c(=N\C(=O)c2cccc(C(F)(F)F)c2F)n1CC1CC1 [compound 495] | 6.3 nM | –
CC(C)(C)c1nn(CC2CC2)/c(=N/C(=O)c2cccc(C(F)(F)F)c2F)s1 [compound 504] | 15.4 nM | –
CCOc1ccncc1C(=O)/N=c1\sc(C(C)(C)C)nn1CC1CC1 [compound 513] | 16.9 nM | –
